{"source": "patent US20260256792A1", "about": "“TREATMENT OF CHRONIC SPONTANEOUS URTICARIA BY ADMINISTERING (R)-2-[3-[4-AMINO-3-(2-FLUORO-4-PHENOXY-PHENYL)PYRAZOLO[3,4-D]PYRIMIDIN-1-YL]PIPERIDINE-1-CARBONYL]-4-METHYL-4-[4-(OXETAN-3-YL)PIPERAZIN-1-YL]PENT-2-ENENITRILE” (priority 2023, published 2026)", "system": "moderate-to-severe chronic spontaneous urticaria (CSU)", "assay": "Phase 2 CSU study: urticaria activity score over 7 days (UAS7)", "type": "in vivo, human", "set-up": "key to UAS7 Median / UAS7 Change from baseline Median / UAS7 change from baseline, Q1 / UAS7 change from baseline, Q3 / UAS7 change from baseline, Max / UAS7 Change from baseline LS Mean (SE): UAS7 points; daily UAS score ranges 0–6 points/day, over 7 days", "text": "The study comprises a 12 week, randomized, double-blind, placebo-controlled, multi-center, dose-ranging efficacy and safety phase, followed by a 40 week open label extension (OLE) phase (see FIG. 1). The study consists of three phases and an optional OLE phase. […] Clinically, CSU is characterized by the spontaneous and recurrent appearance of pruritic hives. The proposed primary endpoints were the UAS7 at Week 12 in EU and EU reference countries and the ISS7 in the US. Regardless of where a participant was from, all assessments were the same. The UAS7 score is a composite score containing both the HSS7 and the ISS7. This allowed a global assessment of the two key components of urticaria: hives and itch. […] The UAS is a validated PRO measure. […] The daily UAS scores range from 0 to 6 point/day. […] Patients were to complete the UAS using the e-diary. […] The following secondary endpoints were to be analyzed using the same approach as for the primary endpoint: • Change from baseline in UAS7 at Week 4 • Change from baseline in UAS7 at Week 12 (for US and US reference countries) • Change from baseline in ISS7 at Week 12 (except US and US reference countries) • Change from baseline in HSS7 at Week 12 The following responder secondary endpoints were to be analyzed using the Cochran-Mantel-Haenszel test adjusted by region: • Proportion of participants with UAS7<6 at Week 12 • Proportion of participants with UAS7=0 at Week 12 Participants who received selected prohibited medications and/or rescue medications were to be considered as non-responders for time points after the medication usage. For other participants, all available data including those collected during the off-treatment period were to be used to determine the responder/non-responder status. Missing data were to be considered as non-responders.", "key": {"[1]": {"settings": "Week 2, 400 mg TID, ITT population"}, "[2]": {"settings": "Week 2, 400 mg TID, Omalizumab-Naïve"}, "[3]": {"settings": "Week 2, 400 mg TID, Prior Omalizumab Use"}, "[4]": {"settings": "Week 2, 400 mg TID, omalizumab-naive participants"}, "[5]": {"settings": "Week 3, 400 mg BID, ITT population"}, "[6]": {"settings": "Week 3, 400 mg BID, Omalizumab-Naïve"}, "[7]": {"settings": "Week 3, 400 mg BID, Prior Omalizumab Use"}, "[8]": {"settings": "Week 3, 400 mg BID, omalizumab-naive participants"}, "[9]": {"settings": "Week 3, 400 mg QPM, ITT population"}, "[10]": {"settings": "Week 3, 400 mg QPM, Omalizumab-Naïve"}, "[11]": {"settings": "Week 3, 400 mg QPM, Prior Omalizumab Use"}, "[12]": {"settings": "Week 3, 400 mg QPM, omalizumab-naive participants"}, "[13]": {"settings": "Week 3, 400 mg TID, ITT population"}, "[14]": {"settings": "Week 3, 400 mg TID, Omalizumab-Naïve"}}, "data": [{"compound": "CC(C)(C=C(C#N)C(=O)N1CCC[C@@H](n2nc(-c3ccc(Oc4ccccc4)cc3F)c3c(N)ncnc32)C1)N1CCN(C2COC2)CC1", "note": "[rilzabrutinib, (R)-2-[3-[4-amino-3-(2-fluoro-4-phenoxy-phenyl)pyrazolo[3,4-d]pyrimidin-1-yl]piperidine-1-carbonyl]-4-methyl-4-[4-(oxetan-3-yl)piperazin-1-yl]pent-2-enenitrile]", "values": [{"measurement": "OR for rilzabrutinib vs. placebo, UAS7 reduction of 10 points or more", "setting": "[1]", "value": 5.982}, {"measurement": "RRD (%) for rilzabrutinib vs. placebo, UAS7 reduction of 10 points or more", "setting": "[1]", "value": 40.6, "unit": "%"}, {"measurement": "Responder, UAS7 reduction from baseline of 10 points or more", "setting": "[1]", "value": "28 (68.3) n (%)"}, {"measurement": "UAS7 Change from baseline Mean (SD)", "setting": "[2]", "value": "−13.69 (11.66)"}, {"measurement": "UAS7 Change from baseline Median", "setting": "[2]", "value": "−11.00"}, {"measurement": "UAS7 Mean (SD)", "setting": "[2]", "value": "15.65 (10.66)"}, {"measurement": "UAS7 Median", "setting": "[2]", "value": 14.00}, {"measurement": "UAS7 Percent change from baseline Mean (SD)", "setting": "[2]", "value": "−45.70 (36.18) %"}, {"measurement": "UAS7 Percent change from baseline Median", "setting": "[2]", "value": "−46.67", "unit": "%"}, {"measurement": "UAS7 Change from baseline Mean (SD)", "setting": "[3]", "value": "−24.69 (11.86)"}, {"measurement": "UAS7 Change from baseline Median", "setting": "[3]", "value": "−22.50"}, {"measurement": "UAS7 Mean (SD)", "setting": "[3]", "value": "8.33 (9.77)"}, {"measurement": "UAS7 Median", "setting": "[3]", "value": 5.50}, {"measurement": "UAS7 Percent change from baseline Mean (SD)", "setting": "[3]", "value": "−75.38 (23.12) %"}, {"measurement": "UAS7 Percent change from baseline Median", "setting": "[3]", "value": "−73.96", "unit": "%"}, {"measurement": "Non-responder, UAS7 reduction from baseline of 10 points or more", "setting": "[4]", "value": "13 (37.1) n (%)"}, {"measurement": "OR for rilzabrutinib vs. placebo, UAS7 reduction of 10 points or more", "setting": "[4]", "value": 5.505}, {"measurement": "RRD (%) for rilzabrutinib vs. placebo, UAS7 reduction of 10 points or more", "setting": "[4]", "value": 39.0, "unit": "%"}, {"measurement": "Responder, UAS7 reduction from baseline of 10 points or more", "setting": "[4]", "value": "22 (62.9) n (%)"}, {"measurement": "Non-responder, UAS7 reduction from baseline of 10 points or more", "setting": "[5]", "value": "20 (48.8) n (%)"}, {"measurement": "OR for rilzabrutinib vs. placebo, UAS7 reduction of 10 points or more", "setting": "[5]", "value": 2.109}, {"measurement": "RRD (%) for rilzabrutinib vs. placebo, UAS7 reduction of 10 points or more", "setting": "[5]", "value": 18.0, "unit": "%"}, {"measurement": "Responder, UAS7 reduction from baseline of 10 points or more", "setting": "[5]", "value": "21 (51.2) n (%)"}, {"measurement": "UAS7 Change from baseline Mean (SD)", "setting": "[6]", "value": "−12.02 (10.63)"}, {"measurement": "UAS7 Change from baseline Median", "setting": "[6]", "value": "−9.00"}, {"measurement": "UAS7 Mean (SD)", "setting": "[6]", "value": "17.71 (11.91)"}, {"measurement": "UAS7 Median", "setting": "[6]", "value": 16.80}, {"measurement": "UAS7 Percent change from baseline Mean (SD)", "setting": "[6]", "value": "−41.11 (35.05) %"}, {"measurement": "UAS7 Percent change from baseline Median", "setting": "[6]", "value": "−32.14", "unit": "%"}, {"measurement": "UAS7 Change from baseline Mean (SD)", "setting": "[7]", "value": "−15.81 (16.39)"}, {"measurement": "UAS7 Change from baseline Median", "setting": "[7]", "value": "−15.00"}, {"measurement": "UAS7 Mean (SD)", "setting": "[7]", "value": "17.19 (13.86)"}, {"measurement": "UAS7 Median", "setting": "[7]", "value": 18.58}, {"measurement": "UAS7 Percent change from baseline Mean (SD)", "setting": "[7]", "value": "−44.47 (44.78) %"}, {"measurement": "UAS7 Percent change from baseline Median", "setting": "[7]", "value": "−41.73", "unit": "%"}, {"measurement": "Non-responder, UAS7 reduction from baseline of 10 points or more", "setting": "[8]", "value": "18 (51.4) n (%)"}, {"measurement": "OR for rilzabrutinib vs. placebo, UAS7 reduction of 10 points or more", "setting": "[8]", "value": 2.057}, {"measurement": "RRD (%) for rilzabrutinib vs. placebo, UAS7 reduction of 10 points or more", "setting": "[8]", "value": 17.2, "unit": "%"}, {"measurement": "Responder, UAS7 reduction from baseline of 10 points or more", "setting": "[8]", "value": "17 (48.6) n (%)"}, {"measurement": "Non-responder, UAS7 reduction from baseline of 10 points or more", "setting": "[9]", "value": "22 (57.9) n (%)"}, {"measurement": "OR for rilzabrutinib vs. placebo, UAS7 reduction of 10 points or more", "setting": "[9]", "value": 1.663}, {"measurement": "RRD (%) for rilzabrutinib vs. placebo, UAS7 reduction of 10 points or more", "setting": "[9]", "value": 11.7, "unit": "%"}, {"measurement": "Responder, UAS7 reduction from baseline of 10 points or more", "setting": "[9]", "value": "16 (42.1) n (%)"}, {"measurement": "UAS7 Change from baseline Mean (SD)", "setting": "[10]", "value": "−9.10 (8.78)"}, {"measurement": "UAS7 Change from baseline Median", "setting": "[10]", "value": "−7.00"}, {"measurement": "UAS7 Mean (SD)", "setting": "[10]", "value": "22.01 (9.00)"}, {"measurement": "UAS7 Median", "setting": "[10]", "value": 22.00}, {"measurement": "UAS7 Percent change from baseline Mean (SD)", "setting": "[10]", "value": "−28.09 (25.63) %"}, {"measurement": "UAS7 Percent change from baseline Median", "setting": "[10]", "value": "−26.67", "unit": "%"}, {"measurement": "UAS7 Change from baseline Mean (SD)", "setting": "[11]", "value": "−22.00 (NC)"}, {"measurement": "UAS7 Change from baseline Median", "setting": "[11]", "value": "−22.00"}, {"measurement": "UAS7 Mean (SD)", "setting": "[11]", "value": "19.00 (NC)"}, {"measurement": "UAS7 Median", "setting": "[11]", "value": 19.00}, {"measurement": "UAS7 Percent change from baseline Mean (SD)", "setting": "[11]", "value": "−53.66 (NC) %"}, {"measurement": "UAS7 Percent change from baseline Median", "setting": "[11]", "value": "−53.66", "unit": "%"}, {"measurement": "Non-responder, UAS7 reduction from baseline of 10 points or more", "setting": "[12]", "value": "22 (59.5) n (%)"}, {"measurement": "OR for rilzabrutinib vs. placebo, UAS7 reduction of 10 points or more", "setting": "[12]", "value": 1.665}, {"measurement": "RRD (%) for rilzabrutinib vs. placebo, UAS7 reduction of 10 points or more", "setting": "[12]", "value": 11.4, "unit": "%"}, {"measurement": "Responder, UAS7 reduction from baseline of 10 points or more", "setting": "[12]", "value": "15 (40.5) n (%)"}, {"measurement": "Non-responder, UAS7 reduction from baseline of 10 points or more", "setting": "[13]", "value": "14 (34.1) n (%)"}, {"measurement": "OR for rilzabrutinib vs. placebo, UAS7 reduction of 10 points or more", "setting": "[13]", "value": 3.444}, {"measurement": "RRD (%) for rilzabrutinib vs. placebo, UAS7 reduction of 10 points or more", "setting": "[13]", "value": 31.4, "unit": "%"}, {"measurement": "Responder, UAS7 reduction from baseline of 10 points or more", "setting": "[13]", "value": "27 (65.9) n (%)"}, {"measurement": "UAS7 Change from baseline Mean (SD)", "setting": "[14]", "value": "−13.97 (12.14)"}, {"measurement": "UAS7 Change from baseline Median", "setting": "[14]", "value": "−14.00"}, {"measurement": "UAS7 Mean (SD)", "setting": "[14]", "value": "15.37 (9.87)"}, {"measurement": "UAS7 Median", "setting": "[14]", "value": 14.00}]}]}
